Test results taken from patent US20060078622A1, “Pharmaceutical formulations containing microparticles or nanoparticles of a delivery agent” (priority 2004, published 2006).
Blank lines part the entries; values can stand above or below the molecule they belong to.

Columns and labels:
[1] = acid and salts; cited from earlier work
[2] = Particle size determination by laser diffraction (Malvern Mastersizer 2000); format: physicochemical
Procedure: The terms “diameter” and “median particle size” are generally used to refer to the dimensions of particles, micro-beads, and granules. The “median particle size” or “diameter” was determined as follows for Examples 8, 9, 10.
The Malvern Mastersizer 2000 determines particle size by laser diffraction and model fitting. A well-dispersed sample in any two-phase system (e.g., powders, suspensions, or emulsions) is introduced into the path of a He—Ne laser focused with a lens of a length suitable for particle sizes present in the sample. The scattering pattern of particles in the laser path is measured by an array of detectors, with each detector measuring data from a particular range of angles.
The Malvern apparatus assumes that the particles being measured are perfect spheres. For non-spherical particles the resulting particle size distribution may be different from those obtained by methods based on others principles. The electronic measurements will often have to be accompanied by microscopic investigation to determine the type of particles being investigated. For irregularly shaped particles, the particle size data obtained from Mastersizer 2000 will be interpreted as the diameter of an imaginary sphere that is equivalent in volume to the measured particle. (Note: d(0.1) is the size of particle for which 10% of the sample is below this size, d(0.5) is the size of particle for which 50% of the sample is below this size, and d(0.9) is the size of particle for which 90% of the sample is below this size.
Generally, this apparatus measures one dimension of a, e.g., particle as it travels past a laser; i.e., it measures the length of a straight line through the particle. […] However, a measurement is taken of a number of particles and a median diameter or size is calculated. Thus, “size” or “diameter” figures are estimates of the median “size” or “diameter” of particles. Alternatively, “diameter” or “size” was measured by a sieve method described in Example 1. “Diameter” should not be read to necessarily imply a spherical shape or a circular dimension, though in certain embodiments, e.g., particles may have rounded edges or generally spherical shapes.
(§1) SNAD was screened through a 35 mesh Tyler standard sieve. The SNAD was milled with a Glen Mills, Model S100 centrifugal ball mill (Clifton, N.J.) equipped with a 250 mL stainless steel grinding jar and 30 mm (440 c) diameter stainless steel balls was used. The process parameters investigated were (1) number of balls used, (2) duration of milling, (3) milling speed, and (4) milling jar total charge. A Malvern Mastersizer 2000 equipped with a Scirocco 2000 dry accessory was used for particle size determination. A Kratos XRD 6000 (version 4.1) X-ray powder diffractometer scanning over the 2θ range 5-40° 2θ was used for monitoring crystallinity changes. The diverging, scattering, and receiving slits were 1°, 1°, and 0.3 mm respectively. A Brinkmann 737 KF coulometer was used for moisture content determination while a Quantachrome Nova 3000 Series Surface Area Analyzer was used for specific surface area determination.

[3] = in vivo; cited from earlier work
[4] = X-ray powder diffraction and Karl Fischer moisture content after milling; format: physicochemical; settings: ball milled
Procedure: as §1, with “The diverging, scattering, and receiving slits were 1°, 1°, and 0.3 mm respectively.” left out

[5] = ball milled, milling time of 120 minutes

SMILES: O=C(O)CCCCCCCNC(=O)c1cc(Cl)ccc1O [5 CNAC acid, N-(5-chlorosalicyloyl)-8-aminocaprylic acid]
water solubility [1]: very water soluble

particle size d(0.5) ([2]; micronized, 2 balls at 200 rpm for 120 minutes): 7.574 μm
SMILES: O=C([O-])CCCCCCCNC(=O)c1ccccc1O.[Na+] [SNAC, monosodium salt of N-(8-[2-hydroxybenzoyl]-amino)caprylic acid]

SMILES: O=C(O)CCCCCCCCCNC(=O)c1ccccc1O [SNAD acid, N-(10-[2-hydroxybenzoyl]-amino) decanoic acid]
absorbed by the gastro-intestinal tract [3]: greater than 90%

crystallinity changes on milling (powder X-ray diffraction) [4]: did not result in crystallinity changes
particle size d(0.9) ([2]; ball milled at 300 rpm): 62.9 μm
particle size d(0.1) ([2]; ball milled, 2 balls): 1.1 μm
particle size d(0.5) ([2]; ball milled, 2 balls): 12.0 μm
particle size d(0.9) ([2]; ball milled, 2 balls): 154.3 μm
particle size d(0.1) [2, 5]: 2.0 μm
particle size d(0.5) [2, 5]: 15.4 μm
particle size d(0.9) [2, 5]: 62.9 μm
particle size d(0.1) ([2]; pre-screened (unmilled)): 1.6 μm
particle size d(0.5) ([2]; pre-screened (unmilled)): 10.5 μm
particle size d(0.9) ([2]; pre-screened (unmilled)): 314.9 μm
SMILES: O=C([O-])CCCCCCCCCNC(=O)c1ccccc1O.[Na+] [SNAD, monosodium salt of N-(10-[2-hydroxybenzoyl]-amino)decanoic acid]
changes in moisture content on milling (Karl Fischer) [4]: no significant changes in moisture content
